Results: US10183014B2, “Ocular formulations for drug-delivery and protection of the anterior segment of the eye” (PanOptica, Inc., priority 2014, dated 2019)
Where two headings read alike, the source gives them in different places.

Assay: Ocular pharmacokinetics of formulations, Example 20-4
Format: in vivo, Dutch Belted rabbits
Conditions: Day 5, 1 hr post dose
Description: The study design (Table 18-1) consisted of forty-nine (49) Dutch Belted rabbits, each receiving a 30 μL bilateral topical ocular dose.
Ocular sampling occurred one hour following the first daily dose on Day 5 for all groups. Whole blood samples using K2EDTA as an anticoagulant were collected from all animals on Day 5, 1 hour post dose. The whole blood was placed on ice until samples were spun in a centrifuge to separate the plasma. Aqueous humor, conjunctiva, cornea, central retina, peripheral retina, central choroid, and peripheral choroid samples were collected following necropsy. Samples were then frozen at −70° C. or lower. For all Groups 1-16, plasma, central retina, central choroid, and cornea samples were assayed for PAN-90806.

Cl.NC(=O)c1c(OCc2c(F)cc(Br)cc2F)nsc1NC(=O)NCCCCN1CCCC1 [Compound-I, 3-[(4-bromo-2,6-difluorophenyl)methoxy]-5-[[[[4-(1-pyrrolidinyl)butyl]amino]carbonyl]amino]-4-isothiazolecarboxamide hydrochloride]
concentration at 1 h (Dutch Belted, rabbit, cornea, topical, 1 mg/mL (30 μL per eye, bilateral), pH 6, Group 2: 1 mg/mL Salt, eye drops solution (control), pH 6, QD, read-out: Cornea concentration): 7060 nM | concentration at 1 h (Dutch Belted, rabbit, cornea, topical, 4 mg/mL (30 μL per eye, bilateral), pH 6, Group 3: 4 mg/mL Salt, eye drops solution (control), pH 6, QD, read-out: Cornea concentration): 15900 nM | concentration at 1 h (Dutch Belted, rabbit, cornea, topical, 4 mg/mL (30 μL per eye, bilateral), Group 16: 4 mg/mL Salt suspension, PSD 30 μm/XL, TRIS 0.60%, glycerol 2%, HEC 0.2%, HPMC 0.08%, VitK3 1 μM, pH 7, QD, read-out: Cornea concentration): 14700 nM | concentration at 1 h (Dutch Belted, rabbit, cornea, topical, 30 μL per eye of 6 mg/mL suspension, QD, pH 6, Group 6: 6 mg/mL Salt suspension, PSD 30 μm/XL, TRIS 0.60%, glycerol 2%, HEC 0.2%, HPMC 0.08%, VitK3 1 μM, pH 6, QD, read-out: Cornea concentration): 14400 nM | concentration at 1 h (Dutch Belted, rabbit, plasma, topical, 1 mg/mL (30 μL per eye, bilateral), pH 6, Group 2: 1 mg/mL Salt, eye drops solution (control), pH 6, QD, read-out: Plasma concentration): 2.67 nM | concentration at 1 h (Dutch Belted, rabbit, plasma, topical, 4 mg/mL (30 μL per eye, bilateral), pH 6, Group 3: 4 mg/mL Salt, eye drops solution (control), pH 6, QD, read-out: Plasma concentration): 4.5 nM | concentration at 1 h (Dutch Belted, rabbit, plasma, topical, 30 μL per eye of 4 mg/mL suspension, Group 7: 4 mg/mL Salt suspension, PSD 30 μm/XL, TRIS 0.60%, glycerol 2%, HEC 0.3%, Tylox 0.04%, VitK3 1 μM, pH 6, QD, read-out: Plasma concentration): 5.56 nM | concentration at 1 h (Dutch Belted, rabbit, plasma, topical, 30 μL per eye of 6 mg/mL suspension, QD, pH 6, Group 6: 6 mg/mL Salt suspension, PSD 30 μm/XL, TRIS 0.60%, glycerol 2%, HEC 0.2%, HPMC 0.08%, VitK3 1 μM, pH 6, QD, read-out: Plasma concentration): 9.98 nM | Plasma concentration (Group 1: 0.3 mg/mL Salt, pH 6, BID, LLOQ = 0.00188 μM): <LLOQ | Central Choroid concentration (Group 1: 0.3 mg/mL Salt, pH 6, BID, LLOQ = 0.0563 μM): <LLOQ | concentration at 1 h (Group 7: 4 mg/mL Salt suspension, PSD 30 μm/XL, TRIS 0.60%, glycerol 2%, HEC 0.3%, Tylox 0.04%, VitK3 1 μM, pH 6, QD, read-out: Central Retina concentration): 69.7 nM | Plasma concentration (Group 8: 4 mg/mL Salt suspension, PSD 30 μm/XL, TRIS 0.60%, glycerol 2%, HEC 0.2%, Tylox 0.04%, VitK3 1 μM, pH 6, QD): 6.62 nM | concentration at 1 h (Group 8: 4 mg/mL Salt suspension, PSD 30 μm/XL, TRIS 0.60%, glycerol 2%, HEC 0.2%, Tylox 0.04%, VitK3 1 μM, pH 6, QD, read-out: Central Choroid concentration): 152 nM | concentration at 1 h (Group 8: 4 mg/mL Salt suspension, PSD 30 μm/XL, TRIS 0.60%, glycerol 2%, HEC 0.2%, Tylox 0.04%, VitK3 1 μM, pH 6, QD, read-out: Central Retina concentration): 90.1 nM | Plasma concentration (Group 9: 4 mg/mL Salt suspension, PSD 30 μm/XL, TRIS 0.60%, glycerol 2%, HEC 0.3%, Tylox 0.04%, VitK3 1 μM, pH 7, QD): 7.38 nM | concentration at 1 h (Group 9: 4 mg/mL Salt suspension, PSD 30 μm/XL, TRIS 0.60%, glycerol 2%, HEC 0.3%, Tylox 0.04%, VitK3 1 μM, pH 7, QD, read-out: Central Retina concentration): 102 nM | Plasma concentration (Group 10: 4 mg/mL Salt suspension, PSD 30 μm/XL, TRIS 0.60%, glycerol 2%, HEC 0.2%, Tylox 0.04%, VitK3 1 μM, pH 7, QD): 5.28 nM | concentration at 1 h (Group 10: 4 mg/mL Salt suspension, PSD 30 μm/XL, TRIS 0.60%, glycerol 2%, HEC 0.2%, Tylox 0.04%, VitK3 1 μM, pH 7, QD, read-out: Central Choroid concentration): 166 nM | concentration at 1 h (Group 10: 4 mg/mL Salt suspension, PSD 30 μm/XL, TRIS 0.60%, glycerol 2%, HEC 0.2%, Tylox 0.04%, VitK3 1 μM, pH 7, QD, read-out: Central Retina concentration): 50.2 nM | Plasma concentration (Group 11: 4 mg/mL Salt suspension, PSD 30 μm/XL, TRIS 0.60%, glycerol 2%, HEC 0.3%, HPMC 0.08%, VitK3 1 μM, pH 6, QD): 4.65 nM | concentration at 1 h (Group 11: 4 mg/mL Salt suspension, PSD 30 μm/XL, TRIS 0.60%, glycerol 2%, HEC 0.3%, HPMC 0.08%, VitK3 1 μM, pH 6, QD, read-out: Central Choroid concentration): 154 nM | concentration at 1 h (Group 11: 4 mg/mL Salt suspension, PSD 30 μm/XL, TRIS 0.60%, glycerol 2%, HEC 0.3%, HPMC 0.08%, VitK3 1 μM, pH 6, QD, read-out: Central Retina concentration): 79.6 nM | Plasma concentration (Group 12: 4 mg/mL Salt suspension, PSD 30 μm/XL, TRIS 0.60%, glycerol 2%, HEC 0.2%, HPMC 0.08%, VitK3 1 μM, pH 6, QD): 3.66 nM | concentration at 1 h (Group 12: 4 mg/mL Salt suspension, PSD 30 μm/XL, TRIS 0.60%, glycerol 2%, HEC 0.2%, HPMC 0.08%, VitK3 1 μM, pH 6, QD, read-out: Central Choroid concentration): 137 nM | concentration at 1 h (Group 12: 4 mg/mL Salt suspension, PSD 30 μm/XL, TRIS 0.60%, glycerol 2%, HEC 0.2%, HPMC 0.08%, VitK3 1 μM, pH 6, QD, read-out: Central Retina concentration): 49 nM | Plasma concentration (Group 13: 4 mg/mL Salt suspension, PSD Native (≈50) μm/XXL, TRIS 0.60%, glycerol 2%, HEC 0.2%, HPMC 0.08%, VitK3 1 μM, pH 6, QD): 5.24 nM | concentration at 1 h (Group 13: 4 mg/mL Salt suspension, PSD Native (≈50) μm/XXL, TRIS 0.60%, glycerol 2%, HEC 0.2%, HPMC 0.08%, VitK3 1 μM, pH 6, QD, read-out: Central Choroid concentration): 234 nM | concentration at 1 h (Group 13: 4 mg/mL Salt suspension, PSD Native (≈50) μm/XXL, TRIS 0.60%, glycerol 2%, HEC 0.2%, HPMC 0.08%, VitK3 1 μM, pH 6, QD, read-out: Central Retina concentration): 67.7 nM | Plasma concentration (Group 14: 4 mg/mL Salt suspension, PSD 3 μm/Large, TRIS 0.60%, glycerol 2%, HEC 0.2%, HPMC 0.08%, VitK3 1 μM, pH 6, QD): 4.99 nM | concentration at 1 h (Group 14: 4 mg/mL Salt suspension, PSD 3 μm/Large, TRIS 0.60%, glycerol 2%, HEC 0.2%, HPMC 0.08%, VitK3 1 μM, pH 6, QD, read-out: Central Choroid concentration): 241 nM | concentration at 1 h (Group 14: 4 mg/mL Salt suspension, PSD 3 μm/Large, TRIS 0.60%, glycerol 2%, HEC 0.2%, HPMC 0.08%, VitK3 1 μM, pH 6, QD, read-out: Central Retina concentration): 99.2 nM | Plasma concentration (Group 15: 4 mg/mL Salt suspension, PSD 30 μm/XL, TRIS 0.60%, glycerol 2%, HEC 0.3%, HPMC 0.08%, VitK3 1 μM, pH 7, QD): 3.25 nM | concentration at 1 h (Group 15: 4 mg/mL Salt suspension, PSD 30 μm/XL, TRIS 0.60%, glycerol 2%, HEC 0.3%, HPMC 0.08%, VitK3 1 μM, pH 7, QD, read-out: Central Choroid concentration): 200 nM | concentration at 1 h (Group 15: 4 mg/mL Salt suspension, PSD 30 μm/XL, TRIS 0.60%, glycerol 2%, HEC 0.3%, HPMC 0.08%, VitK3 1 μM, pH 7, QD, read-out: Central Retina concentration): 53.2 nM
